Measurements reported in ChEMBL document CHEMBL5620413, “Novel pterostilbene derivatives ameliorate heart failure by reducing oxidative stress and inflammation through regulating Nrf2/NF-κB signaling pathway” (Eur J Med Chem, 2023).
Activity calls are given as the source filed them.

Columns and labels:
RAW264.7 [1] = assay: Antiinflammatory activity in mouse RAW264.7 cells assessed as decrease in LPS-induced NO production preincubated for 1 hr followed by LPS treatment for 24 hrs by Griess reagent based assay; type: functional, cell-based; settings: dose <= 10.0 µM, time 25.0 hrs
RAW264.7 [2] = assay: Antiinflammatory activity in mouse RAW264.7 cells assessed as decrease in LPS-induced COX2 expression preincubated for 1 hr followed by LPS treatment for 24 hrs by Western blot analysis; type: functional, cell-based; settings: dose <= 10.0 µM, time 25.0 hrs
RAW264.7 [3] = assay: Inhibition of ROS generation in mouse RAW264.7 cells preincubated for 1 hr followed by DOX treatment for 12 hrs by DCFH-DA dye based analysis; type: functional, cell-based; settings: dose <= 10.0 µM, time 13.0 hrs
RAW264.7 [4] = assay: Inhibition of ROS generation in mouse RAW264.7 cells assessed as increase in LPS-reduced Nrf2 expression upto 10 uM preincubated for 1 hr followed by LPS treatment for 24 hrs by Western blot analysis; type: functional, cell-based; settings: time 25.0 hrs
H9c2 [5] = assay: Inhibition of ROS generation in rat H9c2 cells assessed as increase in DOX-reduced SOD expression upto 10 uM preincubated for 1 hr followed by DOX treatment for 12 hrs by Western blot analysis; type: functional, cell-based; settings: time 13.0 hrs
RAW264.7 [6] = assay: Inhibition of ROS generation in mouse RAW264.7 cells assessed as increase in DOX-reduced CAT expression upto 10 uM preincubated for 1 hr followed by DOX treatment for 12 hrs by Western blot analysis; type: functional, cell-based; settings: time 13.0 hrs
RAW264.7 [7] = assay: Inhibition of ROS generation in mouse RAW264.7 cells assessed as increase in DOX-reduced GPX1 expression upto 10 uM preincubated for 1 hr followed by DOX treatment for 12 hrs by Western blot analysis; type: functional, cell-based; settings: time 13.0 hrs
H9c2 [8] = assay: Inhibition of ROS generation in rat H9c2 cells assessed as increase in DOX-reduced GPX1 expression upto 10 uM preincubated for 1 hr followed by DOX treatment for 12 hrs by Western blot analysis; type: functional, cell-based; settings: time 13.0 hrs
RAW264.7 [9] = assay: Antiinflammatory activity against mouse RAW264.7 cells assessed as decrease in LPS-induced TNF-alpha expression upto 10 uM preincubated for 1 hr followed by LPS treatment for 24 hrs by Western blot analysis; type: functional, cell-based; settings: time 25.0 hrs
RAW264.7 [10] = assay: Antiinflammatory activity against mouse RAW264.7 cells assessed as decrease in LPS-induced IL-6 expression upto 10 uM preincubated for 1 hr followed by LPS treatment for 24 hrs by Western blot analysis; type: functional, cell-based; settings: time 25.0 hrs
RAW264.7 [11] = assay: Antiinflammatory activity against mouse RAW264.7 cells assessed as decrease in LPS-induced NF-kappaB phosphorylation upto 10 uM preincubated for 1 hr followed by LPS treatment for 24 hrs by Western blot analysis; type: functional, cell-based; settings: time 25.0 hrs
Mus musculus [12] = assay: Protection against cardiac dysfunction C57BL/6J mouse model assessed as increase in DOX-reduced LVEF at 7 mg/kg, ip administered daily for 4 weeks by echocardiography; type: functional, organism-based
Mus musculus [13] = assay: Protection against cardiac dysfunction C57BL/6J mouse model assessed as increase in DOX-reduced heart rate at 7 mg/kg, ip administered daily for 4 weeks by echocardiography; type: functional, organism-based
Mus musculus [14] = assay: Protection against cardiac dysfunction C57BL/6J mouse model assessed as decrease in DOX-induced serum CK level at 7 mg/kg, ip administered daily for 4 weeks; type: functional, organism-based
Mus musculus [15] = assay: Protection against cardiac dysfunction C57BL/6J mouse model assessed as decrease in DOX-induced serum LDH level at 7 mg/kg, ip administered daily for 4 weeks; type: functional, organism-based
Mus musculus [16] = assay: Protection against cardiac dysfunction C57BL/6J mouse model assessed as decrease in DOX-induced myocardial fibrosis at 7 mg/kg, ip administered daily for 4 weeks by Sirius Red staining based analysis; type: functional, organism-based
Mus musculus [17] = assay: Protection against cardiac dysfunction C57BL/6J mouse model assessed as decrease in DOX-induced alpha-SMA expression at 7 mg/kg, ip administered daily for 4 weeks by Western blot analysis; type: functional, organism-based
Mus musculus [18] = assay: Protection against cardiac dysfunction C57BL/6J mouse model assessed as decrease in DOX-induced TGF-beta1 expression at 7 mg/kg, ip administered daily for 4 weeks by Western blot analysis; type: functional, organism-based
Mus musculus [19] = assay: Inhibition of DOX-induced cardiac ROS generation in cardiac dysfunction C57BL/6J mouse model at 7 mg/kg, ip administered daily for 4 weeks by DHE staining based analysis; type: functional, organism-based
Mus musculus [20] = assay: Protection against cardiac dysfunction C57BL/6J mouse model assessed as increase in DOX-reduced cardiac SOD1 expression at 7 mg/kg, ip administered daily for 4 weeks by Western blot analysis; type: functional, organism-based
Mus musculus [21] = assay: Protection against cardiac dysfunction C57BL/6J mouse model assessed as increase in DOX-reduced cardiac CAT expression at 7 mg/kg, ip administered daily for 4 weeks by Western blot analysis; type: functional, organism-based
Mus musculus [22] = assay: Antiinflammatory activity in cardiac dysfunction C57BL/6J mouse model assessed as decrease in DOX-induced NF-kappaB expression at 7 mg/kg, ip administered daily for 4 weeks by Western blot analysis; type: functional, organism-based

CCCCOc1ccc(/C=C/c2cc(OC)cc(OC)c2C2CC(C)=NN2C(C)=O)cc1 (configuration not stated)
active: Activity (RAW264.7 [1]) Dose-Dependent Effect | Activity (RAW264.7 [2]) Dose-Dependent Effect | inhibition (RAW264.7 [3]) Dose-Dependent Effect | inhibition (RAW264.7 [4]) | inhibition (H9c2 [5]) | inhibition (RAW264.7 [6]) | inhibition (RAW264.7 [7]) | inhibition (H9c2 [8]) | Activity (RAW264.7 [9]) | Activity (RAW264.7 [10]) | Activity (RAW264.7 [11]) | Activity (Mus musculus [12]) | Activity (Mus musculus [13]) | Activity (Mus musculus [14]) | Activity (Mus musculus [15]) | Activity (Mus musculus [16]) | Activity (Mus musculus [17]) | Activity (Mus musculus [18]) | inhibition (Mus musculus [19]) | Activity (Mus musculus [20]) | Activity (Mus musculus [21]) | Activity (Mus musculus [22])
